Laboratory results from patent US20240415914A1, “Water Dispersible Cannabinoid Compositions” (priority 2021, published 2024).
Read-outs that look alike come from different tables or passages of the source.

Key:
[1] = Stability of cannabinoid and Vitamin E components of Beverage 2 (AB Red) stored at 8° C. and 21-25° C., LCMSMS over 570 days; settings: AB Red
Experimental: The LCMSMS was calibrated for 0-50 ng/ml cannabinoids with the same resin material used in the preparation of the concentrates. At each time period, 100 μml of beverage was diluted with 10 ml of methanol and injected into the LCMSMS for analysis.

[2] = Stability of cannabinoid and Vitamin E components of Beverage 1 (AB White) stored at 8° C. and 21-25° C., LCMSMS over 570 days; assay type: physicochemical; settings: for Storage time after which slight degradation / significant losses are seen: AB White; for Stability in AB White, 8° C. (content by LCMSMS): beverage stored at 8° C.
Experimental: The LCMSMS was calibrated for 0-1000 ng/ml cannabinoids with the same resin material used in the preparation of the concentrates. At each time period, 100 ml of beverage was diluted with 10 ml of methanol and injected into the LCMSMS for analysis.

[3] = assay type: physicochemical; settings: for Stability in Powder Concentrate (content by LCMSMS): stored at room temperature (21-25° C.)
Experimental: At each time period, 0.05 g of powder was dissolved in 10 ml-15 of ethanol, diluted to fall within the analytical range, and injected into the LCMSMS for analysis.

## C=C(C)[C@@H]1CCC(C)=C[C@H]1c1c(O)cc(CCCCC)cc1O [CBD, cannabidiol, reference compound]
[1]; stored at 8° C.
  Storage time after which slight degradation / significant losses are seen: > 420 days
[1]; stored at 21-25° C.
  Storage time after which slight degradation / significant losses are seen: > 390 days
[2]; stored at 8° C.
  Storage time after which slight degradation / significant losses are seen: > 480 days
[2]; stored at 21-25° C.
  Storage time after which slight degradation / significant losses are seen: > 390 days
[2]; day 0
  Stability in AB White, 8° C. (content by LCMSMS): 28.5 µg/mL
[2]; day 1
  Stability in AB White, 8° C. (content by LCMSMS): 27.65 µg/mL
[2]; day 2
  Stability in AB White, 8° C. (content by LCMSMS): 27.67 µg/mL
[2]; day 3
  Stability in AB White, 8° C. (content by LCMSMS): 27.96 µg/mL
[2]; day 5
  Stability in AB White, 8° C. (content by LCMSMS): 28.61 µg/mL
[2]; day 8
  Stability in AB White, 8° C. (content by LCMSMS): 28.47 µg/mL
[2]; day 9
  Stability in AB White, 8° C. (content by LCMSMS): 28.44 µg/mL
[2]; day 10
  Stability in AB White, 8° C. (content by LCMSMS): 27.87 µg/mL
[2]; day 11
  Stability in AB White, 8° C. (content by LCMSMS): 28.13 µg/mL
[2]; day 12
  Stability in AB White, 8° C. (content by LCMSMS): 28.10 µg/mL
[2]; day 15
  Stability in AB White, 8° C. (content by LCMSMS): 27.99 µg/mL
[2]; day 16
  Stability in AB White, 8° C. (content by LCMSMS): 28.04 µg/mL
[2]; day 17
  Stability in AB White, 8° C. (content by LCMSMS): 27.84 µg/mL
[2]; day 18
  Stability in AB White, 8° C. (content by LCMSMS): 27.87 µg/mL
[2]; day 19
  Stability in AB White, 8° C. (content by LCMSMS): 28.36 µg/mL
[2]; day 22
  Stability in AB White, 8° C. (content by LCMSMS): 28.50 µg/mL
[2]; day 23
  Stability in AB White, 8° C. (content by LCMSMS): 27.67 µg/mL
[2]; day 24
  Stability in AB White, 8° C. (content by LCMSMS): 28.44 µg/mL
[2]; day 25
  Stability in AB White, 8° C. (content by LCMSMS): 27.65 µg/mL
[2]; day 26
  Stability in AB White, 8° C. (content by LCMSMS): 27.73 µg/mL
[2]; day 29
  Stability in AB White, 8° C. (content by LCMSMS): 28.24 µg/mL
[2]; day 30
  Stability in AB White, 8° C. (content by LCMSMS): 27.93 µg/mL
[2]; day 60
  Stability in AB White, 8° C. (content by LCMSMS): 27.73 µg/mL
[2]; day 90
  Stability in AB White, 8° C. (content by LCMSMS): 27.87 µg/mL
[2]; day 120
  Stability in AB White, 8° C. (content by LCMSMS): 27.39 µg/mL
[2]; day 150
  Stability in AB White, 8° C. (content by LCMSMS): 28.59 µg/mL
[2]; day 180
  Stability in AB White, 8° C. (content by LCMSMS): 27.59 µg/mL
[2]; day 210
  Stability in AB White, 8° C. (content by LCMSMS): 27.76 µg/mL
[2]; day 240
  Stability in AB White, 8° C. (content by LCMSMS): 27.79 µg/mL
[2]; day 270
  Stability in AB White, 8° C. (content by LCMSMS): 28.07 µg/mL
[2]; day 300
  Stability in AB White, 8° C. (content by LCMSMS): 27.96 µg/mL
[2]; day 330
  Stability in AB White, 8° C. (content by LCMSMS): 27.33 µg/mL
[2]; day 360
  Stability in AB White, 8° C. (content by LCMSMS): 27.79 µg/mL
[2]; day 390
  Stability in AB White, 8° C. (content by LCMSMS): 27.50 µg/mL
[2]; day 420
  Stability in AB White, 8° C. (content by LCMSMS): 27.50 µg/mL
[2]; day 480
  Stability in AB White, 8° C. (content by LCMSMS): 27.13 µg/mL
[2]; day 510
  Stability in AB White, 8° C. (content by LCMSMS): 26.48 µg/mL
[2]; day 540
  Stability in AB White, 8° C. (content by LCMSMS): 26.51 µg/mL
[2]; day 570
  Stability in AB White, 8° C. (content by LCMSMS): 26.22 µg/mL
[3]; powder concentrate, room temperature (21-25° C.), 570 days
  Chemical stability over the entire period (result in words): no significant degradation
[3]; day 0
  Stability in Powder Concentrate (content by LCMSMS): 5.85 mg/g powder
[3]; day 1
  Stability in Powder Concentrate (content by LCMSMS): 5.69 mg/g powder
[3]; day 2
  Stability in Powder Concentrate (content by LCMSMS): 5.76 mg/g powder
[3]; day 3
  Stability in Powder Concentrate (content by LCMSMS): 5.81 mg/g powder
[3]; day 5
  Stability in Powder Concentrate (content by LCMSMS): 5.84 mg/g powder
[3]; day 8
  Stability in Powder Concentrate (content by LCMSMS): 5.91 mg/g powder
[3]; day 9
  Stability in Powder Concentrate (content by LCMSMS): 6.01 mg/g powder
[3]; day 10
  Stability in Powder Concentrate (content by LCMSMS): 5.69 mg/g powder
[3]; day 11
  Stability in Powder Concentrate (content by LCMSMS): 6.00 mg/g powder
[3]; day 12
  Stability in Powder Concentrate (content by LCMSMS): 5.76 mg/g powder
[3]; day 15
  Stability in Powder Concentrate (content by LCMSMS): 5.85 mg/g powder
[3]; day 16
  Stability in Powder Concentrate (content by LCMSMS): 5.97 mg/g powder
[3]; day 17
  Stability in Powder Concentrate (content by LCMSMS): 5.97 mg/g powder
[3]; day 18
  Stability in Powder Concentrate (content by LCMSMS): 6.01 mg/g powder
[3]; day 19
  Stability in Powder Concentrate (content by LCMSMS): 5.74 mg/g powder
[3]; day 22
  Stability in Powder Concentrate (content by LCMSMS): 5.84 mg/g powder
[3]; day 23
  Stability in Powder Concentrate (content by LCMSMS): 6.10 mg/g powder
[3]; day 24
  Stability in Powder Concentrate (content by LCMSMS): 5.89 mg/g powder
[3]; day 25
  Stability in Powder Concentrate (content by LCMSMS): 6.01 mg/g powder
[3]; day 26
  Stability in Powder Concentrate (content by LCMSMS): 6.00 mg/g powder
[3]; day 29
  Stability in Powder Concentrate (content by LCMSMS): 5.97 mg/g powder
[3]; day 30
  Stability in Powder Concentrate (content by LCMSMS): 5.94 mg/g powder
[3]; day 60
  Stability in Powder Concentrate (content by LCMSMS): 5.66 mg/g powder
[3]; day 90
  Stability in Powder Concentrate (content by LCMSMS): 6.00 mg/g powder
[3]; day 120
  Stability in Powder Concentrate (content by LCMSMS): 5.80 mg/g powder
[3]; day 150
  Stability in Powder Concentrate (content by LCMSMS): 5.65 mg/g powder
[3]; day 180
  Stability in Powder Concentrate (content by LCMSMS): 5.93 mg/g powder
[3]; day 210
  Stability in Powder Concentrate (content by LCMSMS): 5.83 mg/g powder
[3]; day 240
  Stability in Powder Concentrate (content by LCMSMS): 5.98 mg/g powder
[3]; day 270
  Stability in Powder Concentrate (content by LCMSMS): 5.72 mg/g powder
[3]; day 300
  Stability in Powder Concentrate (content by LCMSMS): 5.84 mg/g powder
[3]; day 330
  Stability in Powder Concentrate (content by LCMSMS): 6.01 mg/g powder
[3]; day 360
  Stability in Powder Concentrate (content by LCMSMS): 5.97 mg/g powder
[3]; day 390
  Stability in Powder Concentrate (content by LCMSMS): 5.93 mg/g powder
[3]; day 420
  Stability in Powder Concentrate (content by LCMSMS): 5.94 mg/g powder
[3]; day 450
  Stability in Powder Concentrate (content by LCMSMS): 5.65 mg/g powder
[3]; day 480
  Stability in Powder Concentrate (content by LCMSMS): 5.66 mg/g powder
[3]; day 510
  Stability in Powder Concentrate (content by LCMSMS): 6.01 mg/g powder
[3]; day 540
  Stability in Powder Concentrate (content by LCMSMS): 5.81 mg/g powder
[3]; day 570
  Stability in Powder Concentrate (content by LCMSMS): 5.85 mg/g powder
